The target of series [1] is T1, full-length human GCN2 enzyme (Homo sapiens, UniProt Q9P2K8).
T1 construct: purchased Carna Bioscience
Briefly: GCN2 enzyme inhibition, LanthaScreen TR-FRET Kinase Activity assay (10 μM and 300 μM ATP). The series is classed as biochemical. As to conditions: mean of replicate assays. Here is the method:
Biological and Pharmacokinetic Testing (a) GCN2 Enzyme Inhibition (10 μM and 300 μM Assays) Assay Protocol Overview:
The inhibitory activity of the Example compounds towards GCN2 enzyme was measured according to the description below, using a LanthaScreen TR-FRET (Time Resolved Fluorescence Resonance Energy Transfer) Kinase Activity assay distributed by ThermoFisher Scientific.
The full-length human GCN2 enzyme (UniProt accession number Q9P2K8) was used for all experiments (Carna Bioscience). The TR-FRET pair was composed of GFP-eIF2α and LanthaScreen Terbium-labeled anti-peIF2α (pSer52) Antibody.
Each example compound was dissolved in DMSO (0.15 mM) and dispensed in a 384-well plate by a D300 dispenser (Tecan) to a final concentration range 3000-0.13 nM using the logarithmic dilution mode in 2 replicates. Full inhibition (3000 nM commercial reference inhibitor) and DMSO vehicle control wells were also included on the same plate. All volumes were normalized to the final DMSO concentration of 2% of the reaction volume. Next, 5 μL of H2O was added to each well of the plate.
The enzyme mixture was prepared to obtain the following concentrations: • GCN2—30 nM • unloaded tRNA—0.3 nM • HEPES (pH=7.0)—100 mM • MgCl2—20 mM; MnCl2—10 mM
The mixture was applied by adding 5 μL to each well of the plate. The enzyme and the tested compound were then incubated at room temperature for 20 min while shaking at 450 rpm.
The substrate mixture was prepared to obtain the following concentrations: • GFP-eIF2α—240 nM • ATP—900 μM or 30 μM • HEPES (pH=7.0)—50 mM • MgCl2—10 mM • MnCl2—5 mM.
The mixture was applied by adding 5 μL to each well of the plate. Thus, the final concentrations of the 15 μL reaction mixture were as follows: • GCN2—10 nM • unloaded tRNA—0.1 nM • GFP-eIF2α—80 nM • ATP—300 μM or 10 μM • HEPES (1 M, pH=7.0)—50 mM • MgCl2—10 mM • MnCl2—5 mM.
The reaction was allowed to proceed at room temperature for 30 min while shaking at 450 rpm.
The antibody mixture was prepared to obtain the following concentrations: • Na2EDTA·2H2O—40 mM, in TR-FRET Dilution Buffer (Life technologies) • Tb—anti-peIF2a antibodies—4 nM.
The mixture was applied by adding 15 μL to each well. The plate was then incubated at room temperature for 60 min while shaking at 450 rpm and then read using Tecan Spark reader using specific TR-FRET filters.
The analysis of the GFP/Tb fluorescence results was conducted with GraphPad Prism to determine IC50 for each of the example compounds using 4-parameter model: log(inhibitor) vs. response-variable slope. IC50 and K, values were calculated in the usual way. The assay was carried out between 1 and 15 times. The results in the table below are the mean results from replicate assays for the compound in question, where applicable.
In general terms: TR-FRET usually uses a lanthanide donor and a delayed reading to cut background.

The nature of series [2]: Kinetic solubility in PBS buffer pH 7.4. The series is classed as physicochemical. To be noted: aqueous buffer, kinetic from dmso stock; PBS buffer pH 7.4, 90 minutes at room temperature, from 10 mM DMSO stock. Here is the method:
The kinetic solubility assay investigates a solubility based on the amount of material which remains in solution after a precipitation process. […] Assay is performed using Multiscreen Vacuum Manifold. A buffer of interest (in standard protocol PBS buffer at pH=7.4 is used) is spiked with stock solution and incubated for 90 minutes at room temperature. After that time solution/suspension is filtrated. The concentration of each compound is determined on the base of prepared calibration curve using UV-VIS spectrophotometry method. The assay is made in triplicate.
Buffer of interest: 0.24 g of KH2PO4, 1.44 g of Na2HPO4, 0.2 g of KCl and 8 g NaCl and dissolve in 1 L distilled H2O; adjust pH to appropriate value (pH 7.4). 190 μl of buffer of interest was dispensed into the wells of a 96 well filter plate, followed by 10 μl of compound (10 mM stock solution in DMSO). The plate was shaken gently at room temperature for 90 minutes at 500 rpm using a BioSan, Plate Shaker-Thermostat, PST-60 HL-4. After 90 minutes, the plate was filtered using a vacuum manifold and vacuum pump. 100 μl of each filtrate and 100 μl acetonitrile was transferred to a 96 well UV-visible light transparent plate and the UV-visible absorption spectrum was measured using a Biotek Synergy 2 multiplate reader from 250-500 nm, interval range 10 nm. The amount of test compound was calculated using a calibration curve prepared by serial dilution of compounds in equivalent amounts of DMSO and acetonitrile.

[3] abbreviates: read-out: GCN2 IC50 (nM) 10 uM ATP, 10 uM ATP.
Where [4] appears, read: read-out: GCN2 IC50 (nM) 300 uM ATP, 300 uM ATP.
[5] abbreviates: read-out: GCN2 Ki (nM) 10 uM ATP, 10 uM ATP.
[6] abbreviates: read-out: GCN2 Ki (nM) 300 uM ATP, 300 uM ATP.

Like-named read-outs stand apart in the source and are kept apart here.

T1 sequence (Q9P2K8 whole entry): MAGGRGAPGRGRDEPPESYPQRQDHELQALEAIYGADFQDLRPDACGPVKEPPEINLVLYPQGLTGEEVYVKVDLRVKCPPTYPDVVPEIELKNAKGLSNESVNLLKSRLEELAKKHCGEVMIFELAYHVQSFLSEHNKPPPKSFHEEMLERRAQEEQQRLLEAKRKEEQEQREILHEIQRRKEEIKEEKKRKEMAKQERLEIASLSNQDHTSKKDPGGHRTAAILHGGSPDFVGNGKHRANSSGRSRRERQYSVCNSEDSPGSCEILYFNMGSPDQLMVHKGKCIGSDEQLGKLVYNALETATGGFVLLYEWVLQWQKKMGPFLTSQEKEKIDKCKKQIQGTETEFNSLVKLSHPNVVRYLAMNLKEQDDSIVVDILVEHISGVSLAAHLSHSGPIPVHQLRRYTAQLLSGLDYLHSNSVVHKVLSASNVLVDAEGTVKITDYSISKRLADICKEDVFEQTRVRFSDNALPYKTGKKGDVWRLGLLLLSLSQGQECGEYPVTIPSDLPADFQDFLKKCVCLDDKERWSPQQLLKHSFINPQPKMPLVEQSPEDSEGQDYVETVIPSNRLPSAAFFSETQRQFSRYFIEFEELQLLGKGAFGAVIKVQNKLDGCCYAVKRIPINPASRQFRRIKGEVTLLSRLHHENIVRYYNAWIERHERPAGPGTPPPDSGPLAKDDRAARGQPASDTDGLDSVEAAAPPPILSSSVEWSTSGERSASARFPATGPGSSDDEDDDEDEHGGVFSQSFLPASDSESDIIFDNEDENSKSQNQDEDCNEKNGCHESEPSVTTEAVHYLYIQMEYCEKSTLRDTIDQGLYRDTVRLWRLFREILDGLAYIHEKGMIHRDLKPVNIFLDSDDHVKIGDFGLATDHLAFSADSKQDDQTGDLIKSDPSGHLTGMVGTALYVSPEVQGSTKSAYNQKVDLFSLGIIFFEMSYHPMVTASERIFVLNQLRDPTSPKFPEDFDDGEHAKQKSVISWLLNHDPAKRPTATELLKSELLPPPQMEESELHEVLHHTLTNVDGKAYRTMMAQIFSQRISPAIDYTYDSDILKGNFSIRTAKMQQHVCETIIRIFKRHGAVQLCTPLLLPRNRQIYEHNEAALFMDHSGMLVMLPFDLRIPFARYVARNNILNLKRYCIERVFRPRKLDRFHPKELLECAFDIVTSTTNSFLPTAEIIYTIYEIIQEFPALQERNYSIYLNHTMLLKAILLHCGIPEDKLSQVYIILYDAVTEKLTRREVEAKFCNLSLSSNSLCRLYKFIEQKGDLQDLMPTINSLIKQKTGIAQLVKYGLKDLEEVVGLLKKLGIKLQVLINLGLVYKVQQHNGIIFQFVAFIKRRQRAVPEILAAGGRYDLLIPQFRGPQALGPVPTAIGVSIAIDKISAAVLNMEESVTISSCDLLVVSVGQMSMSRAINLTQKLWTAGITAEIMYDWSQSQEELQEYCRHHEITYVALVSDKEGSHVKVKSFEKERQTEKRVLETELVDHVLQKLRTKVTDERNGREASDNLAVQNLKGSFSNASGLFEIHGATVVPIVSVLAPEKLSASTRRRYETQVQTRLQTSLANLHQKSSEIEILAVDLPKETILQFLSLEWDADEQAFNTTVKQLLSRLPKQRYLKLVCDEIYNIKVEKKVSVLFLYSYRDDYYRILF

A word on the IC50: it is the point on the concentration scale where inhibition reaches its midpoint. What is called Ki is a measure of affinity in units of concentration, obtained from inhibition or displacement. The term solubility (kinetic) denotes solubility judged after dilution from a stock solution rather than from solid. For `COc1ncc(Cl)cc1S(=O)(=O)Nc1nccc(C#Cc2cnc(N)nc2)c1Cl` [Example 2, N-{4-[2-(2-aminopyrimidin-5-yl)ethynyl]-3-chloropyridin-2-yl}-5-chloro-2-methoxypyridine-3-sulfonamide], the IC50 in series [1] (setting [3]) came to 8.1 nM; in series [1] (setting [4]) it was 79 nM. Also, the Ki in series [1] (setting [5]) is 2.6 nM; in series [1] (setting [6]), 1.2 nM. Further, the solubility (kinetic) at 90 min in series [2] came out at 226 µg/mL.

Take `COc1ncc(Cl)cc1S(=O)(=O)Nc1nccc(C#Cc2cnc(N)c3ncccc23)c1F` [Example 4, N-{4-[2-(8-amino-1,7-naphthyridin-5-yl)ethynyl]-3-fluoropyridin-2-yl}-5-chloro-2-methoxypyridine-3-sulfonamide]: the values for the IC50 in series [1] (setting [3]) and in series [1] (setting [4]) were 2.9 nM and 17.6 nM, respectively. In addition, the Ki in series [1] (setting [5]) was determined as 0.9 nM; in series [1] (setting [6]), 0.3 nM. Further, the kinetic solubility at 90 min in series [2] is 29.5 µg/mL.

For the compound `COc1ncc(Cl)cc1S(=O)(=O)Nc1nccc(C#Cc2cncc3nccnc23)c1F` [Example 5, 5-chloro-N-{4-[2-(pyrido[3,4-b]pyrazin-8-yl)ethynyl]-3-fluoropyridin-2-yl}-2-methoxypyridine-3-sulfonamide], the IC50 in series [1] (setting [3]) stood at 7.8 nM; in series [1] (setting [4]) it was 186 nM. Moreover, the Ki in series [1] (setting [5]) is 2.5 nM; in series [1] (setting [6]), 2.8 nM. Besides, in series [2], the kinetic solubility at 90 min came out at 223 µg/mL.

With `COc1ncc(Cl)cc1S(=O)(=O)Nc1nccc(C#Cc2cncc3cccnc23)c1F` [Example 6, 5-chloro-N-{4-[2-(1,6-naphthyridin-8-yl)ethynyl]-3-fluoropyridin-2-yl}-2-methoxypyridine-3-sulfonamide], the IC50 in series [1] (setting [3]) came to 6.7 nM; in series [1] (setting [4]) it was 49.3 nM. In addition, the inhibition constant (Ki) is 2.1 nM in series [1] (setting [5]) and 0.8 nM in series [1] (setting [6]). Besides, the kinetic solubility at 90 min in series [2] was 40.3 µg/mL.

In the case of `COc1ncc(Cl)cc1S(=O)(=O)Nc1nccc(C#Cc2cnn3c(N)ccnc23)c1F` [Example 7, N-{4-[2-(7-aminopyrazolo[1,5-a]pyrimidin-3-yl)ethynyl]-3-fluoropyridin-2-yl}-5-chloro-2-methoxypyridine-3-sulfonamide], the IC50 in series [1] (setting [3]) turned out to be 7.9 nM; in series [1] (setting [4]) it was 105 nM. In addition, the Ki amounted to 2.5 nM in series [1] (setting [5]) and 1.6 nM in series [1] (setting [6]). For the same compound, the kinetic solubility at 90 min in series [2] was 216 µg/mL.

As to `COc1ncc(Cl)cc1S(=O)(=O)Nc1nccc(C#Cc2cnc3c(N)cccn23)c1F` [Example 8, N-{4-[2-(8-aminoimidazo[1,2-a]pyridin-3-yl)ethynyl]-3-fluoropyridin-2-yl}-5-chloro-2-methoxypyridine-3-sulfonamide], the IC50 was determined as 9.9 nM in series [1] (setting [3]) and 335 nM in series [1] (setting [4]). For the same compound, the values for the Ki in series [1] (setting [5]) and in series [1] (setting [6]) were 3.1 nM and 5.1 nM, respectively. Further, the solubility (kinetic) at 90 min in series [2] was 214 µg/mL.

For `COc1ncc(Cl)cc1S(=O)(=O)Nc1nccc(C#Cc2cnc3ccccc3n2)c1F` [Example 9, 5-chloro N-{4-[2-(quinoxalin-2-yl)ethynyl]-3-fluoropyridin-2-yl}-2-methoxypyridine-3-sulfonamide], the IC50 was determined as 7.5 nM in series [1] (setting [3]) and 112 nM in series [1] (setting [4]). For the same compound, the results for the Ki in series [1] (setting [5]) and in series [1] (setting [6]) were 2.4 nM and 1.7 nM, respectively. Also, in series [2], the solubility (kinetic) at 90 min turned out to be 134 µg/mL.

On to `COc1ncc(Cl)cc1S(=O)(=O)Nc1ncc(F)c(C#Cc2cnc(N)nc2)c1F` [Example 10, N-{4-[2-(2-aminopyrimidin-5-yl)ethynyl]-3,5-difluoropyridin-2-yl}-5-chloro-2-methoxypyridine-3-sulfonamide], for which the kinetic solubility at 90 min in series [2] came to 138 µg/mL.

On to `COc1ncc(Cl)cc1S(=O)(=O)Nc1nccc(C#Cc2cnc3c(N)nccn23)c1F` [Example 11, N-{4-[2-(8-aminoimidazo[1,2-a]pyrazin-3-yl)ethynyl]-3-fluoropyridin-2-yl}-5-chloro-2-methoxypyridine-3-sulfonamide], for which the results for the IC50 in series [1] (setting [3]) and in series [1] (setting [4]) were 2.3 nM and 71.8 nM, respectively. The Ki in series [1] (setting [5]) was 0.7 nM; in series [1] (setting [6]), 1.1 nM. The solubility (kinetic) at 90 min in series [2] came to 216 µg/mL.

As for `COc1ccc(Cl)cc1S(=O)(=O)Nc1nccc(C#Cc2cnc3[nH]ncc3c2)c1F` [Example 12, 5-chloro-N-[3-fluoro-4-(2-{1H-pyrazolo[3,4-b]pyridin-5-yl}ethynyl)pyridin-2-yl]-2-methoxybenzene-1-sulfonamide], the concentration for half-maximal inhibition (IC50) in series [1] (setting [4]) is 257 nM. In addition, the Ki in series [1] (setting [6]) is 3.9 nM. The solubility (kinetic) at 90 min in series [2] was 161 µg/mL.

Take `COc1ccc(Cl)cc1S(=O)(=O)Nc1nccc(C#Cc2cnc(N)nc2)c1F` [Example 13, N-{4-[2-(2-aminopyrimidin-5-yl)ethynyl]-3-fluoropyridin-2-yl}-5-chloro-2-methoxybenzene-1-sulfonamide]: the IC50 in series [1] (setting [4]) is 611 nM. The Ki in series [1] (setting [6]) turned out to be 9.3 nM. Moreover, the kinetic solubility at 90 min in series [2] came out at 109 µg/mL.

Regarding `O=S(=O)(Nc1nccc(C#Cc2cnc3[nH]ncc3c2)c1F)c1cc(Cl)ccc1Cl` [Example 14, 2,5-dichloro-N-[3-fluoro-4-(2-{1H-pyrazolo[3,4-b]pyridin-5-yl}ethynyl)pyridin-2-yl]benzene-1-sulfonamide], in series [1] (setting [4]), the IC50 came out at 236 nM. Moreover, in series [1] (setting [6]), the Ki worked out at 3.6 nM. Also, the kinetic solubility at 90 min in series [2] worked out at 24.7 µg/mL.

`Nc1ncc(C#Cc2ccnc(NS(=O)(=O)c3cc(Cl)ccc3Cl)c2F)cn1` [Example 15, N-{4-[2-(2-aminopyrimidin-5-yl)ethynyl]-3-fluoropyridin-2-yl}-2,5-dichlorobenzene-1-sulfonamide]: the IC50 in series [1] (setting [4]) came out at 465 nM. The Ki in series [1] (setting [6]) was found to be 7.1 nM. In series [2], the kinetic solubility at 90 min was 224 µg/mL.

`Nc1ncc(C#Cc2ccnc(NS(=O)(=O)c3cc(Cl)cc(CO)c3Cl)c2F)cn1` [Example 16, N-{4-[2-(2-aminopyrimidin-5-yl)ethynyl]-3-fluoropyridin-2-yl}-2,5-dichloro-3-(hydroxymethyl)benzene-1-sulfonamide]: the IC50 in series [1] (setting [4]) was determined as 111 nM. In series [1] (setting [6]), the Ki was found to be 1.7 nM. Further, the solubility (kinetic) at 90 min in series [2] is 218 µg/mL.

`O=S(=O)(Nc1nccc(C#Cc2cnc3[nH]ncc3c2)c1F)c1cc(Cl)cc(CO)c1Cl` [Example 17, 2,5-dichloro-N-[3-fluoro-4-(2-{1H-pyrazolo[3,4-b]pyridin-5-yl}ethynyl)pyridin-2-yl]-3-(hydroxymethyl)benzene-1-sulfonamide]: the IC50 in series [1] (setting [4]) was found to be 59 nM. The Ki in series [1] (setting [6]) amounted to 0.9 nM. The solubility (kinetic) at 90 min in series [2] stood at 250 µg/mL.

For the compound `COc1nc(N)ncc1C#Cc1ccnc(NS(=O)(=O)c2cc(Cl)cnc2OC)c1F` [Example 35, N-{4-[2-(2-amino-4-methoxypyrimidin-5-yl)ethynyl]-3-fluoropyridin-2-yl}-5-chloro-2-methoxypyridine-3-sulfonamide], the IC50 in series [1] (setting [4]) was 328 nM. Also, the Ki in series [1] (setting [6]) stood at 5 nM.

For the origin of these results see patent publication US11945799B2, “4-ethynylpyridine derivatives useful as GCN2 inhibitors” (IP2IPO INNOVATIONS LIMITED, priority 2020, dated 2024).
